In PMC6950245, “Identification and Characterization of ShSPI, a Kazal-Type Elastase Inhibitor from the Venom of Scolopendra Hainanum” (Toxins, 2019):
Where a SMILES comes first, the peptide text is derived from it. Bridges are numbered along the chain shown (N, C = ends).

target: T1, human neutrophil elastase (HNE) (Homo sapiens, UniProt P08246); assay: Protease inhibition assay, human neutrophil elastase (chromogenic substrate, Dixon method); format: biochemical
T1 construct: purchased Sigma-Aldrich E8140
T1 sequence (P08246 30-267): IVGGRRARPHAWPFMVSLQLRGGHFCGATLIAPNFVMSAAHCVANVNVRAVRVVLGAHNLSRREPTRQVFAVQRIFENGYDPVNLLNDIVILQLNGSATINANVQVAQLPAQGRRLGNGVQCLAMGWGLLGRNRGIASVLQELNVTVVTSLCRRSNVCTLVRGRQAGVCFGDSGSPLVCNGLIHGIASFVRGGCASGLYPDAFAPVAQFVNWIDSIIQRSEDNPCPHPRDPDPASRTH
From the text: Human neutrophils elastase (HNE, E8140), porcine pancreatic elastase (PPE, E0127), cathepsin G (CG, C4428), human trypsin (T6424), α-chymotrypsin from human pancreas (C8946), and thrombin from human plasma (T4393) were all purchased from Sigma-Aldrich (USA). Factor Xa (FXa, HFXa 1011) and Factor XIIa (FXIIa, HFXIIa 1212a) were from Enzyme Research Laboratories (South Bend, IN, USA). Kallikrein from human plasma (420307) was from Merck Millipore (Billerica, MA, USA).
Substrate for HNE and PPE (MeOSuc-Ala-Ala-Pro-Val-pNA, 324696) was purchased from Merck Millipore (USA). Substrates for CG (Succinyl-Ala-Ala-Pro-Phe-pNA, 573462), trypsin (Nalpha-Benzoyl-L-arginine 4-nitroanilide hydrochloride, B3133), FXa (CH3OCO-D-CHA-Gly-Arg-pNA-AcOH, F3301), chymotrypsin (N-Succinyl-Gly-Gly-Phe-pNA, S1899), thrombin (β-Ala-Gly-Arg-pNA diacetate, T3068), and kallikrein (Z-Phe-Arg 7-amido-4-methylcoumarin hydrochloride, C9521) were purchased from Sigma-Aldrich (USA).
As mentioned in our previous study, experiments for protease inhibitory activity were assayed in buffer (0.05 M Tris-HCl, pH 7.8) at 37 °C. […] At the end of the incubation, the reaction was initiated by the addition of the exclusive substrate solution and monitored by recording the absorbance at 405 nm every 30 s for 30 min. Enzyme activity in each well was calculated based on the initial slope of the reaction curve, and percentage of the initial slope of the uninhibited reaction was expressed. The inhibition constant Ki value was determined according to the Dixon method.

Going from `CC[C@H](C)[C@@H]1NC(=O)[C@H](C)NC(=O)[C@@H]2CCCN2C(=O)[C@@H]2CSSC[C@H](NC(=O)[C@H](CO)NC(=O)[C@H](CC(N)=O)NC(=O)[C@H](CO)NC(=O)[C@H](Cc3ccc(O)cc3)NC(=O)[C@H](CCSC)NC(=O)[C@H](CCCNC(=N)N)NC(=O)CNC(=O)[C@H](Cc3ccccc3)NC(=O)[C@H](CCC(=O)O)NC(=O)[C@H](CC(=O)O)NC(=O)[C@H](Cc3ccccc3)NC(=O)[C@H](C(C)C)NC(=O)[C@@H]3CCCN3C(=O)[C@H](CCC(N)=O)NC(=O)[C@H](C)NC1=O)C(=O)N[C@@H](CCC(=O)O)C(=O)N[C@@H](CCSC)C(=O)N[C@@H](CCC(N)=O)C(=O)N[C@@H](CCCNC(=N)N)C(=O)N[C@@H](C)C(=O)N[C@@H](CCCNC(=N)N)C(=O)N[C@H](C(=O)N[C@@H](CC(C)C)C(=O)N[C@@H](CCCNC(=N)N)C(=O)NCC(=O)O)CSSC[C@H](N)C(=O)N1CCC[C@H]1C(=O)N[C@@H](CCC(N)=O)C(=O)N[C@@H](C(C)C)C(=O)N2` [Y9A] (H-CPQVCPAIAQPVFDEFGRMYSNSCEMQRARCLRG-OH; disulfide 1-31, 5-24) to `CC[C@H](C)[C@@H]1NC(=O)[C@H](C)NC(=O)[C@@H]2CCCN2C(=O)[C@@H]2CSSC[C@H](NC(=O)[C@H](CO)NC(=O)[C@H](CC(N)=O)NC(=O)[C@H](C)NC(=O)[C@H](Cc3ccc(O)cc3)NC(=O)[C@H](CCSC)NC(=O)[C@H](CCCNC(=N)N)NC(=O)CNC(=O)[C@H](Cc3ccccc3)NC(=O)[C@H](CCC(=O)O)NC(=O)[C@H](CC(=O)O)NC(=O)[C@H](Cc3ccccc3)NC(=O)[C@H](C(C)C)NC(=O)[C@@H]3CCCN3C(=O)[C@H](CCC(N)=O)NC(=O)[C@H](Cc3ccc(O)cc3)NC1=O)C(=O)N[C@@H](CCC(=O)O)C(=O)N[C@@H](CCSC)C(=O)N[C@@H](CCC(N)=O)C(=O)N[C@@H](CCCNC(=N)N)C(=O)N[C@@H](C)C(=O)N[C@@H](CCCNC(=N)N)C(=O)N[C@H](C(=O)N[C@@H](CC(C)C)C(=O)N[C@@H](CCCNC(=N)N)C(=O)NCC(=O)O)CSSC[C@H](N)C(=O)N1CCC[C@H]1C(=O)N[C@@H](CCC(N)=O)C(=O)N[C@@H](C(C)C)C(=O)N2` [S21A] (H-CPQVCPAIYQPVFDEFGRMYANSCEMQRARCLRG-OH; disulfide 1-31, 5-24), the Ki falls from over 1000 µM to 0.0168 µM.

Going from `CC[C@H](C)[C@@H]1NC(=O)[C@H](C)NC(=O)[C@@H]2CCCN2C(=O)[C@@H]2CSSC[C@H](NC(=O)[C@H](CO)NC(=O)[C@H](CC(N)=O)NC(=O)[C@H](CO)NC(=O)[C@H](Cc3ccc(O)cc3)NC(=O)[C@H](CCSC)NC(=O)[C@H](CCCNC(=N)N)NC(=O)CNC(=O)[C@H](Cc3ccccc3)NC(=O)[C@H](CCC(=O)O)NC(=O)[C@H](CC(=O)O)NC(=O)[C@H](Cc3ccccc3)NC(=O)[C@H](C(C)C)NC(=O)[C@@H]3CCCN3C(=O)[C@H](C)NC(=O)[C@H](Cc3ccc(O)cc3)NC1=O)C(=O)N[C@@H](CCC(=O)O)C(=O)N[C@@H](CCSC)C(=O)N[C@@H](CCC(N)=O)C(=O)N[C@@H](CCCNC(=N)N)C(=O)N[C@@H](C)C(=O)N[C@@H](CCCNC(=N)N)C(=O)N[C@H](C(=O)N[C@@H](CC(C)C)C(=O)N[C@@H](CCCNC(=N)N)C(=O)NCC(=O)O)CSSC[C@H](N)C(=O)N1CCC[C@H]1C(=O)N[C@@H](CCC(N)=O)C(=O)N[C@@H](C(C)C)C(=O)N2` [Q10A] (H-CPQVCPAIYAPVFDEFGRMYSNSCEMQRARCLRG-OH; disulfide 1-31, 5-24) to `CC[C@H](C)[C@@H]1NC(=O)[C@H](C)NC(=O)[C@@H]2CCCN2C(=O)[C@@H]2CSSC[C@H](NC(=O)[C@H](CO)NC(=O)[C@H](CC(N)=O)NC(=O)[C@H](CO)NC(=O)[C@H](Cc3ccc(O)cc3)NC(=O)[C@H](CCSC)NC(=O)[C@H](CCCNC(=N)N)NC(=O)CNC(=O)[C@H](Cc3ccccc3)NC(=O)[C@H](CCC(=O)O)NC(=O)[C@H](CC(=O)O)NC(=O)[C@H](Cc3ccccc3)NC(=O)[C@H](C(C)C)NC(=O)[C@@H]3CCCN3C(=O)[C@H](CCC(N)=O)NC(=O)[C@H](Cc3ccc(O)cc3)NC1=O)C(=O)N[C@@H](CCC(=O)O)C(=O)N[C@@H](CCSC)C(=O)N[C@@H](CCC(N)=O)C(=O)N[C@@H](CCCNC(=N)N)C(=O)N[C@@H](C)C(=O)N[C@@H](CCCNC(=N)N)C(=O)N[C@H](C(=O)N[C@@H](CC(C)C)C(=O)N[C@@H](CCCNC(=N)N)C(=O)NCC(=O)O)CSSC[C@H](N)C(=O)N1CCC[C@H]1C(=O)N[C@@H](C)C(=O)N[C@@H](C(C)C)C(=O)N2` [Q3A] (H-CPAVCPAIYQPVFDEFGRMYSNSCEMQRARCLRG-OH; disulfide 1-31, 5-24), the Ki rises from 0.0136 µM to 0.114 µM (8.4-fold).

`CC[C@H](C)[C@@H]1NC(=O)[C@H](C)NC(=O)[C@H](C)NC(=O)[C@@H]2CSSC[C@H](NC(=O)[C@H](CO)NC(=O)[C@H](CC(N)=O)NC(=O)[C@H](CO)NC(=O)[C@H](Cc3ccc(O)cc3)NC(=O)[C@H](CCSC)NC(=O)[C@H](CCCNC(=N)N)NC(=O)CNC(=O)[C@H](Cc3ccccc3)NC(=O)[C@H](CCC(=O)O)NC(=O)[C@H](CC(=O)O)NC(=O)[C@H](Cc3ccccc3)NC(=O)[C@H](C(C)C)NC(=O)[C@@H]3CCCN3C(=O)[C@H](CCC(N)=O)NC(=O)[C@H](Cc3ccc(O)cc3)NC1=O)C(=O)N[C@@H](CCC(=O)O)C(=O)N[C@@H](CCSC)C(=O)N[C@@H](CCC(N)=O)C(=O)N[C@@H](CCCNC(=N)N)C(=O)N[C@@H](C)C(=O)N[C@@H](CCCNC(=N)N)C(=O)N[C@H](C(=O)N[C@@H](CC(C)C)C(=O)N[C@@H](CCCNC(=N)N)C(=O)NCC(=O)O)CSSC[C@H](N)C(=O)N1CCC[C@H]1C(=O)N[C@@H](CCC(N)=O)C(=O)N[C@@H](C(C)C)C(=O)N2` [P6A] (H-CPQVCAAIYQPVFDEFGRMYSNSCEMQRARCLRG-OH; disulfide 1-31, 5-24) and `CC[C@H](C)[C@@H]1NC(=O)[C@H](C)NC(=O)[C@@H]2CCCN2C(=O)[C@@H]2CSSC[C@H](NC(=O)[C@H](CO)NC(=O)[C@H](CC(N)=O)NC(=O)[C@H](CO)NC(=O)[C@H](Cc3ccc(O)cc3)NC(=O)[C@H](CCSC)NC(=O)[C@H](CCCNC(=N)N)NC(=O)CNC(=O)[C@H](Cc3ccccc3)NC(=O)[C@H](CCC(=O)O)NC(=O)[C@H](CC(=O)O)NC(=O)[C@H](Cc3ccccc3)NC(=O)[C@H](C(C)C)NC(=O)[C@@H]3CCCN3C(=O)[C@H](CCC(N)=O)NC(=O)[C@H](Cc3ccc(O)cc3)NC1=O)C(=O)N[C@@H](CCC(=O)O)C(=O)N[C@@H](CCSC)C(=O)N[C@@H](CCC(N)=O)C(=O)N[C@@H](CCCNC(=N)N)C(=O)N[C@@H](C)C(=O)N[C@@H](CCCNC(=N)N)C(=O)N[C@H](C(=O)N[C@@H](CC(C)C)C(=O)N[C@@H](CCCNC(=N)N)C(=O)NCC(=O)O)CSSC[C@H](N)C(=O)N[C@@H](C)C(=O)N[C@@H](CCC(N)=O)C(=O)N[C@@H](C(C)C)C(=O)N2` [P2A] (H-CAQVCPAIYQPVFDEFGRMYSNSCEMQRARCLRG-OH; disulfide 1-31, 5-24) are within 1.5-fold of each other in Ki: 0.105 µM for the first, 0.101 µM for the second.

First: CC[C@H](C)[C@@H]1NC(=O)[C@H](C)NC(=O)[C@@H]2CCCN2C(=O)[C@@H]2CSSC[C@H](NC(=O)[C@H](CO)NC(=O)[C@H](CC(N)=O)NC(=O)[C@H](CO)NC(=O)[C@H](Cc3ccc(O)cc3)NC(=O)[C@H](CCSC)NC(=O)[C@H](CCCNC(=N)N)NC(=O)CNC(=O)[C@H](Cc3ccccc3)NC(=O)[C@H](CCC(=O)O)NC(=O)[C@H](CC(=O)O)NC(=O)[C@H](Cc3ccccc3)NC(=O)[C@H](C(C)C)NC(=O)[C@@H]3CCCN3C(=O)[C@H](CCC(N)=O)NC(=O)[C@H](Cc3ccc(O)cc3)NC1=O)C(=O)N[C@@H](C)C(=O)N[C@@H](CCSC)C(=O)N[C@@H](CCC(N)=O)C(=O)N[C@@H](CCCNC(=N)N)C(=O)N[C@@H](C)C(=O)N[C@@H](CCCNC(=N)N)C(=O)N[C@H](C(=O)N[C@@H](CC(C)C)C(=O)N[C@@H](CCCNC(=N)N)C(=O)NCC(=O)O)CSSC[C@H](N)C(=O)N1CCC[C@H]1C(=O)N[C@@H](CCC(N)=O)C(=O)N[C@@H](C(C)C)C(=O)N2 [E25A] (H-CPQVCPAIYQPVFDEFGRMYSNSCAMQRARCLRG-OH; disulfide 1-31, 5-24)
Second: CC[C@H](C)[C@@H]1NC(=O)[C@H](C)NC(=O)[C@@H]2CCCN2C(=O)[C@@H]2CSSC[C@H](NC(=O)[C@H](CO)NC(=O)[C@H](CC(N)=O)NC(=O)[C@H](CO)NC(=O)[C@H](Cc3ccc(O)cc3)NC(=O)[C@H](CCSC)NC(=O)[C@H](CCCNC(=N)N)NC(=O)CNC(=O)[C@H](Cc3ccccc3)NC(=O)[C@H](CCC(=O)O)NC(=O)[C@H](CC(=O)O)NC(=O)[C@H](Cc3ccccc3)NC(=O)[C@H](C(C)C)NC(=O)[C@@H]3CCCN3C(=O)[C@H](CCC(N)=O)NC(=O)[C@H](Cc3ccc(O)cc3)NC1=O)C(=O)N[C@@H](CCC(=O)O)C(=O)N[C@@H](CCSC)C(=O)N[C@@H](CCC(N)=O)C(=O)N[C@@H](CCCNC(=N)N)C(=O)N[C@@H](C)C(=O)N[C@@H](CCCNC(=N)N)C(=O)N[C@H](C(=O)N[C@@H](CC(C)C)C(=O)N[C@@H](CCCNC(=N)N)C(=O)NCC(=O)O)CSSC[C@H](N)C(=O)N1CCC[C@H]1C(=O)N[C@@H](CCC(N)=O)C(=O)N[C@@H](C)C(=O)N2 [V4A] (H-CPQACPAIYQPVFDEFGRMYSNSCEMQRARCLRG-OH; disulfide 1-31, 5-24)
The Ki of the first is higher: over 1000 µM for the first, 0.0132 µM for the second. The second binds more tightly here.
